The values that follow come from patent US12660819B2, “Herbicidal derivatives” (SYNGENTA CROP PROTECTION AG, priority 2020, dated 2026).

What all share (type): in vivo
Test [1] concerns Zea mays (ZEAMX). Put plainly: Pre-emergence Test (glasshouse, percentage damage to the plant). Particulars: 1000 g/ha unless otherwise stated, five-point scale.
Test [2] has as its system Ipomoea hederacea (IPOHE). The test is described as above. The note with it: 1000 g/ha unless otherwise stated, five-point scale.
In test [3] the test system is Zea mays (ZEAMX). Put plainly: Post-emergence Test (glasshouse, percentage damage to the plant). Particulars: post-emergence spray, 1000 g/ha unless otherwise stated, evaluated after 13 days. The method, boiled down:
(§1)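 After sowing in standard soil, pots were kept at 24/16 °C (day/night), 14 h light and 65% humidity. They were sprayed at 1000 g/ha unless otherwise stated, watered twice daily, and assessed for percentage damage at 13 days on a 1–5 scale.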

The test system of test [4] is Ipomoea hederacea (IPOHE). The test is described as above. Particulars: post-emergence spray, 1000 g/ha unless otherwise stated, evaluated after 13 days. The method, boiled down: as §1
The test system of test [5] is Setaria faberi (SETFA). The test is described as above. Particulars: post-emergence spray, 1000 g/ha unless otherwise stated, evaluated after 13 days. Summed up:
as §1

Test [6] concerns Abutilon theophrasti (ABUTH). The test is described as above. Particulars: post-emergence spray, 1000 g/ha unless otherwise stated, evaluated after 13 days. Summed up:
(§2)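 Scored 13 days after spraying as percentage plant damage in five bands (5=81–100%, 4=61–80%, 3=41–60%, 2=21–40%, 1=0–20%). Spray at 1000 g/ha unless stated, in acetone/water 50:50 plus 0.5% Tween 20, onto sown glasshouse pots (24/16 °C, 14 h light, 65% humidity).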

Test [7] relates to Amaranthus retoflexus (AMARE). The description is as above. The note with it: post-emergence spray, 1000 g/ha unless otherwise stated, evaluated after 13 days. Summed up:
as §2

In test [8] the test system is Echinochloa crus-galli (ECHCG). The description is as above. The note with it: post-emergence spray, 1000 g/ha unless otherwise stated, evaluated after 13 days. The method, boiled down: as §2
The subject of test [9] is Abutilon theophrasti (ABUTH). The experiment in a line: Pre-emergence Test (glasshouse, percentage damage to the plant). Particulars: 1000 g/ha unless otherwise stated, five-point scale.
For test [10], the system named is Setaria faberi (SETFA). Described as above. Particulars: 1000 g/ha unless otherwise stated, five-point scale.
The subject of test [11] is Echinochloa crus-galli (ECHCG). The test is described as above. Particulars: 1000 g/ha unless otherwise stated, five-point scale.
The test system of test [12] is Amaranthus retoflexus (AMARE). The test is described as above. Particulars: 1000 g/ha unless otherwise stated, five-point scale.

With `CCn1c(C)c(-c2ccc(C(F)(F)F)nc2)c(=O)c(C(=O)O)c1-c1ccc(Cl)c(Cl)c1` [Compound 108, 2-(3,4-dichlorophenyl)-1-ethyl-6-methyl-4-oxo-5-[6-(trifluoromethyl)-3-pyridyl]pyridine-3-carboxylic acid], the “percentage damage to the plant, ZEAMX” value in the test on Zea mays (ZEAMX) [1] is reported as 1 (1=0-20%). For the same compound, the “percentage damage to the plant, IPOHE” value in [2] is 1 (1=0-20%). Also, in the test with Zea mays (ZEAMX) [3], the “Post-emergence Test ZEAMX, percentage damage to the plant (five-point scale)” value is 2 (2=21-40%). Also, the “Post-emergence Test IPOHE, percentage damage to the plant (five-point scale)” value in test [4] was 2 (2=21-40%). The “Post-emergence Test SETFA, percentage damage to the plant (five-point scale)” value in the test on Setaria faberi (SETFA) [5] was 3 (3=41-60%). Besides, in test [6], the “Post-emergence Test ABUTH, percentage damage to the plant (five-point scale)” value is 2 (2=21-40%). Also, the “Post-emergence Test AMARE, percentage damage to the plant (five-point scale)” value in [7] is 2 (2=21-40%). The “Post-emergence Test ECHCG, percentage damage to the plant (five-point scale)” value in [8] was 2 (2=21-40%). Besides, the “percentage damage to the plant, ABUTH” value in [9] was 1 (1=0-20%). For the same compound, in the test with Setaria faberi (SETFA) [10], the “percentage damage to the plant, SETFA” value is 3 (3=41-60%). Moreover, the “percentage damage to the plant, ECHCG” value in test [11] is on record as 1 (1=0-20%). Also, in test [12], the “percentage damage to the plant, AMARE” value was 1 (1=0-20%).

As to `CCn1c(C)c(-c2ccc(C(=O)N(C)C)cc2)c(=O)c(C(=O)O)c1-c1ccc(Cl)c(Cl)c1` [Compound 109, 2-(3,4-dichlorophenyl)-5-[4-(dimethylcarbamoyl)phenyl]-1-ethyl-6-methyl-4-oxo-pyridine-3-carboxylic acid], the “percentage damage to the plant, ZEAMX” value with Zea mays (ZEAMX) [1] was 1 (1=0-20%). In addition, the “percentage damage to the plant, IPOHE” value in test [2] is listed as 1 (1=0-20%). For the same compound, the “Post-emergence Test ZEAMX, percentage damage to the plant (five-point scale)” value in the test on Zea mays (ZEAMX) [3] is reported as 1 (1=0-20%). Further, the “Post-emergence Test IPOHE, percentage damage to the plant (five-point scale)” value in test [4] was 4 (4=61-80%). In addition, the “Post-emergence Test SETFA, percentage damage to the plant (five-point scale)” value with Setaria faberi (SETFA) [5] was 3 (3=41-60%). In addition, in test [6], the “Post-emergence Test ABUTH, percentage damage to the plant (five-point scale)” value is reported as 3 (3=41-60%). Further, the “Post-emergence Test AMARE, percentage damage to the plant (five-point scale)” value in [7] was 1 (1=0-20%). Also, in test [8], the “Post-emergence Test ECHCG, percentage damage to the plant (five-point scale)” value is 2 (2=21-40%). The “percentage damage to the plant, ABUTH” value in test [9] is reported as 1 (1=0-20%). Further, the “percentage damage to the plant, SETFA” value in the test on Setaria faberi (SETFA) [10] is 4 (4=61-80%). Further, in [11], the “percentage damage to the plant, ECHCG” value was 1 (1=0-20%). In addition, the “percentage damage to the plant, AMARE” value in test [12] was 1 (1=0-20%).

`CCn1c(C)c(-c2cccc(OCC(F)(F)F)c2)c(=O)c(C(=O)O)c1-c1ccc(Cl)c(Cl)c1` [Compound 110, 2-(3,4-dichlorophenyl)-1-ethyl-6-methyl-4-oxo-5-[3-(2,2,2-trifluoroethoxy)phenyl] pyridine-3-carboxylic acid]: in the test on Zea mays (ZEAMX) [1], the “percentage damage to the plant, ZEAMX” value is 1 (1=0-20%). Further, the “percentage damage to the plant, IPOHE” value in test [2] is on record as 1 (1=0-20%). Also, the “Post-emergence Test ZEAMX, percentage damage to the plant (five-point scale)” value in the test on Zea mays (ZEAMX) [3] is 1 (1=0-20%). For the same compound, the “Post-emergence Test IPOHE, percentage damage to the plant (five-point scale)” value in test [4] is 1 (1=0-20%). The “Post-emergence Test SETFA, percentage damage to the plant (five-point scale)” value with Setaria faberi (SETFA) [5] is listed as 1 (1=0-20%). Besides, in test [6], the “Post-emergence Test ABUTH, percentage damage to the plant (five-point scale)” value is 1 (1=0-20%). In addition, in [7], the “Post-emergence Test AMARE, percentage damage to the plant (five-point scale)” value is 1 (1=0-20%). Moreover, the “Post-emergence Test ECHCG, percentage damage to the plant (five-point scale)” value in test [8] is given as 1 (1=0-20%). The “percentage damage to the plant, ABUTH” value in test [9] is 1 (1=0-20%). Also, in the test with Setaria faberi (SETFA) [10], the “percentage damage to the plant, SETFA” value is 1 (1=0-20%). The “percentage damage to the plant, ECHCG” value in [11] is on record as 1 (1=0-20%). For the same compound, in test [12], the “percentage damage to the plant, AMARE” value is given as 1 (1=0-20%).

For the compound `CCn1c(C)c(-c2ccc(COC)cc2)c(=O)c(C(=O)O)c1-c1ccc(Cl)c(Cl)c1` [Compound 111, 2-(3,4-dichlorophenyl)-1-ethyl-5-[4-(methoxymethyl)phenyl]-6-methyl-4-oxo-pyridine-3-carboxylic acid], in the test on Zea mays (ZEAMX) [1], the “percentage damage to the plant, ZEAMX” value is reported as 3 (3=41-60%). The “percentage damage to the plant, IPOHE” value in test [2] is 1 (1=0-20%). The “Post-emergence Test ZEAMX, percentage damage to the plant (five-point scale)” value in the test on Zea mays (ZEAMX) [3] was 2 (2=21-40%). The “Post-emergence Test IPOHE, percentage damage to the plant (five-point scale)” value in [4] was 2 (2=21-40%). The “Post-emergence Test SETFA, percentage damage to the plant (five-point scale)” value with Setaria faberi (SETFA) [5] is given as 4 (4=61-80%). The “Post-emergence Test ABUTH, percentage damage to the plant (five-point scale)” value in test [6] is 4 (4=61-80%). Further, in [7], the “Post-emergence Test AMARE, percentage damage to the plant (five-point scale)” value is reported as 2 (2=21-40%). The “Post-emergence Test ECHCG, percentage damage to the plant (five-point scale)” value in [8] was 3 (3=41-60%). Besides, the “percentage damage to the plant, ABUTH” value in test [9] is given as 2 (2=21-40%). Also, the “percentage damage to the plant, SETFA” value in the test with Setaria faberi (SETFA) [10] is 5 (5=81-100%). Moreover, the “percentage damage to the plant, ECHCG” value in [11] was 4 (4=61-80%). Besides, the “percentage damage to the plant, AMARE” value in [12] is given as 1 (1=0-20%).

With `CCn1c(C)c(-c2cccc(C(C)=O)c2)c(=O)c(C(=O)O)c1-c1ccc(Cl)c(Cl)c1` [Compound 112, 5-(3-acetylphenyl)-2-(3,4-dichlorophenyl)-1-ethyl-6-methyl-4-oxo-pyridine-3-carboxylic acid], in the test on Zea mays (ZEAMX) [1], the “percentage damage to the plant, ZEAMX” value is listed as 1 (1=0-20%). Moreover, the “percentage damage to the plant, IPOHE” value in [2] is listed as 1 (1=0-20%). Also, the “Post-emergence Test ZEAMX, percentage damage to the plant (five-point scale)” value in the test with Zea mays (ZEAMX) [3] is listed as 1 (1=0-20%). Besides, the “Post-emergence Test IPOHE, percentage damage to the plant (five-point scale)” value in [4] is listed as 2 (2=21-40%). Moreover, the “Post-emergence Test SETFA, percentage damage to the plant (five-point scale)” value in the test with Setaria faberi (SETFA) [5] is recorded as 4 (4=61-80%). In [6], the “Post-emergence Test ABUTH, percentage damage to the plant (five-point scale)” value is 3 (3=41-60%). In test [7], the “Post-emergence Test AMARE, percentage damage to the plant (five-point scale)” value is 2 (2=21-40%). Further, in test [8], the “Post-emergence Test ECHCG, percentage damage to the plant (five-point scale)” value is on record as 3 (3=41-60%). In addition, the “percentage damage to the plant, ABUTH” value in test [9] is on record as 2 (2=21-40%). For the same compound, the “percentage damage to the plant, SETFA” value with Setaria faberi (SETFA) [10] is 4 (4=61-80%). Further, the “percentage damage to the plant, ECHCG” value in test [11] is given as 1 (1=0-20%). For the same compound, the “percentage damage to the plant, AMARE” value in test [12] is recorded as 1 (1=0-20%).

Take `CCn1c(C)c(-c2cccc(OC)n2)c(=O)c(C(=O)O)c1-c1ccc(Cl)c(Cl)c1` [Compound 113, 2-(3,4-dichlorophenyl)-1-ethyl-5-(6-methoxy-2-pyridyl)-6-methyl-4-oxo-pyridine-3-carboxylic acid]: in the test with Zea mays (ZEAMX) [1], the “percentage damage to the plant, ZEAMX” value is listed as 2 (2=21-40%). The “percentage damage to the plant, IPOHE” value in [2] is on record as 2 (2=21-40%). In addition, the “Post-emergence Test ZEAMX, percentage damage to the plant (five-point scale)” value in the test on Zea mays (ZEAMX) [3] is 2 (2=21-40%). For the same compound, in test [4], the “Post-emergence Test IPOHE, percentage damage to the plant (five-point scale)” value is listed as 2 (2=21-40%). Moreover, the “Post-emergence Test SETFA, percentage damage to the plant (five-point scale)” value with Setaria faberi (SETFA) [5] is reported as 4 (4=61-80%). Further, the “Post-emergence Test ABUTH, percentage damage to the plant (five-point scale)” value in [6] is reported as 4 (4=61-80%). In addition, in test [7], the “Post-emergence Test AMARE, percentage damage to the plant (five-point scale)” value is reported as 3 (3=41-60%). Further, in test [8], the “Post-emergence Test ECHCG, percentage damage to the plant (five-point scale)” value is 3 (3=41-60%). For the same compound, in test [9], the “percentage damage to the plant, ABUTH” value is 3 (3=41-60%). The “percentage damage to the plant, SETFA” value with Setaria faberi (SETFA) [10] is 4 (4=61-80%). In addition, the “percentage damage to the plant, ECHCG” value in [11] is 1 (1=0-20%). Besides, the “percentage damage to the plant, AMARE” value in [12] is listed as 1 (1=0-20%).
